From patent US7723368B2, “Amino-5-[4-(difluoromethoxy)phenyl]-5-phenylimidazolone compounds for the inhibition of beta-secretase” (Wyeth LLC, priority 2007, dated 2010)

Target: human BACE1 (Homo sapiens, UniProt P56817)
Test: BACE1 fluorescent kinetic assay (cleavage of peptide substrate WABC-6)
Format: biochemical
Conditions: Activity Table, Examples 1-108; 10 nM enzyme, 25 μM substrate WABC-6, pH 4.5, room temperature
Experimental: Evaluation of BACE1 Binding Affinity of Test Compounds
Fluorescent Kinetic Assays
Dilution and mixing steps: total reaction volume: 100 μL
100 μM substrate dilution in 1×PBS was prepared, and
Fluorescence Readings: Readings at λex 320 nm and λem 420 nm are taken every 40 sec for 30 min at room temperature and the linear slope for substrate cleavage rate (vi) determined.

Chain of human BACE1 (P56817 46-501): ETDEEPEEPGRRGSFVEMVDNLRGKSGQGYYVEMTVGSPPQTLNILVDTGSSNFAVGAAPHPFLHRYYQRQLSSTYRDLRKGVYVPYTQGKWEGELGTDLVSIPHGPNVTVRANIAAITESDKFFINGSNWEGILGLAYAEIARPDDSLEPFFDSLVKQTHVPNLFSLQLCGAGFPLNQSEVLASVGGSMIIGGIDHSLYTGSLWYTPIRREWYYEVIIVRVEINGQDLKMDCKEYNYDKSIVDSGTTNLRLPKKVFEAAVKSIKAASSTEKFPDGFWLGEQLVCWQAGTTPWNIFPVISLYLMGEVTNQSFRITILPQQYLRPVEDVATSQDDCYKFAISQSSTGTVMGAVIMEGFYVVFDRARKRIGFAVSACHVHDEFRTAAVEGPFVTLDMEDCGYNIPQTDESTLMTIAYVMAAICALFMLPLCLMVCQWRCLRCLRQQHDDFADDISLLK

Row | SMILES | IC50 [µM]
1 | CN(C)Cc1cccc(C2(c3ccc(OC(F)F)cc3)N=C(N)N(C)C2=O)c1 (stereo not shown) [Example 62, 2-amino-5-[4-(difluoromethoxy)phenyl]-5-{3-[(dimethylamino)-methyl]phenyl}-3-methyl-3,5-dihydro-4H-imidazol-4-one] | > 1
2 | CN1C(=O)C(c2ccc(OC(F)F)cc2)(c2cccc(CN3CCCC3)c2)N=C1N (stereo not shown) [Example 66, 2-amino-5-[4-(difluoromethoxy)phenyl]-3-methyl-5-[3-(pyrrolidin-1-ylmethyl)phenyl]-3,5-dihydro-4H-imidazol-4-one] | > 1
3 | CN1C(=O)C(c2ccc(OC(F)F)cc2)(c2ccc(OC(F)F)cc2)N=C1N [Example 67, 2-amino-5,5-bis[4-(difluoromethoxy)phenyl]-3-methyl-3,5-dihydro-4H-imidazol-4-one] | > 1
4 | CN1C(=O)C(c2ccc(OC(F)F)cc2)(c2cccc(C3CC3)c2)N=C1N (stereo not shown) [Example 70, 2-amino-4-(3-cyclopropylphenyl)-4-(4-(difluoromethoxy)phenyl)-1-methyl-1H-imidazol-5(4H)-one] | > 1
5 | Cc1cccc(C2(c3ccc(OC(F)F)cc3)N=C(N)N(C)C2=O)c1 (stereo not shown) [Example 74, 2-Amino-5-[4-(difluoromethoxy)phenyl]-3-methyl-5-(3-methylphenyl)-3,5-dihydro-4H-imidazol-4-one] | 0.11 to 1
6 | CC=Cc1cc(C2(c3ccc(OC(F)F)cc3)N=C(N)N(C)C2=O)ccc1F (stereo not shown) [Example 75A, 2-amino-5-[4-(difluoromethoxy)phenyl]-5-(4-fluoro-3-prop-1-en-1-ylphenyl)-3-methyl-3,5-dihydro-4H-imidazol-4-one] | 0.11 to 1
7 | C/C=C\c1cc(C2(c3ccc(OC(F)F)cc3)N=C(N)N(C)C2=O)ccc1F (stereo not shown) [Example 75B, 2-amino-5-[4-(difluoromethoxy)phenyl]-5-{4-fluoro-3-[(1Z)-prop-1-en-1-yl]phenyl}-3-methyl-3,5-dihydro-4H-imidazol-4-one] | 0.11 to 1
8 | C/C=C/c1cc(C2(c3ccc(OC(F)F)cc3)N=C(N)N(C)C2=O)ccc1F (stereo not shown) [Example 75C, 2-amino-5-[4-(difluoromethoxy)phenyl]-5-{4-fluoro-3-[(1E)-prop-1-en-1-yl]phenyl}-3-methyl-3,5-dihydro-4H-imidazol-4-one] | > 1
9 | C/C=C\c1cc([C@]2(c3ccc(OC(F)F)cc3)N=C(N)N(C)C2=O)ccc1F [Example 76A, (5S)-2-amino-5-[4-(difluoromethoxy)phenyl]-5-{4-fluoro-3-[(1Z)-prop-1-en-1-yl]phenyl}-3-methyl-3,5-dihydro-4H-imidazol-4-one] | > 1
10 | C/C=C\c1cc([C@@]2(c3ccc(OC(F)F)cc3)N=C(N)N(C)C2=O)ccc1F [Example 76B, (5R)-2-amino-5-[4-(difluoromethoxy)phenyl]-5-{4-fluoro-3-[(1Z)-prop-1-en-1-yl]phenyl}-3-methyl-3,5-dihydro-4H-imidazol-4-one] | > 1
11 | C/C=C/c1cc([C@]2(c3ccc(OC(F)F)cc3)N=C(N)N(C)C2=O)ccc1F [Example 77A, (5S)-2-amino-5-[4-(difluoromethoxy)phenyl]-5-{4-fluoro-3-[(1E)-prop-1-en-1-yl]phenyl}-3-methyl-3,5-dihydro-4H-imidazol-4-one] | > 1
12 | CN1C(=O)C(c2ccc(OC(F)F)cc2)(c2cccc(O)c2)N=C1N (stereo not shown) [Example 81, 2-Amino-5-[4-(difluoromethoxy)phenyl]-5-(3hydroxyphenyl)-3-methyl-3,5-dihydro-4H-imidazol-4-one] | 0.11 to 1
13 | CN1C(=O)C(c2ccc(OC(F)F)cc2)(c2ccc(F)c(N3CCOCC3)c2)N=C1N (stereo not shown) [Example 86, 2-amino-4-(4-(difluoromethoxy)phenyl)-4-(4-fluoro-3-morpholinophenyl)-1-methyl-1H-imidazol-5(4H)-one] | 0.11 to 1
14 | CN1C(=O)C(c2ccc(OC(F)F)cc2)(c2cccc(Cc3ccco3)c2)N=C1N (stereo not shown) [Example 88, 2-amino-4-(4-(difluoromethoxy)phenyl)-4-(3-(furan-2-ylmethyl)phenyl)-1-methyl-1H-imidazol-5(4H)-one] | 0.11 to 1
15 | CN1C(=O)[C@](c2ccc(OC(F)F)cc2)(c2ccc(F)c(OCCC(F)F)c2)N=C1N [Example 93, (5S)-2-Amino-5-[4-(difluoromethoxy)phenyl]-5-[3-(3,3-difluoropropoxy)-4-fluorophenyl]-3-methyl-3,5-dihydro-4H-imidazol-4-one] | 0.11 to 1

The remaining lines, values ahead:

Row | IC50 [µM] | SMILES
16 | 0.11 to 1 | CCNCc1cccc(C2(c3ccc(OC(F)F)cc3)N=C(N)N(C)C2=O)c1 (stereo not shown) [Example 63, 2-amino-5-[4-(difluoromethoxy)phenyl]-5-{3-[(ethylamino)methyl]phenyl}-3-methyl-3,5-dihydro-4H-imidazol-4-one]
17 | 0.11 to 1 | CCCNCc1cccc(C2(c3ccc(OC(F)F)cc3)N=C(N)N(C)C2=O)c1 (stereo not shown) [Example 64, 2-amino-5-[4-(difluoromethoxy)phenyl]-3-methyl-5-{3-[(propylamino)-methyl]phenyl}-3,5-dihydro-4H-imidazol-4-one]
18 | 0.11 to 1 | CCCCNCc1cccc(C2(c3ccc(OC(F)F)cc3)N=C(N)N(C)C2=O)c1 (stereo not shown) [Example 65, 2-amino-5-{3-[(butylamino)methyl]phenyl}-5-[4-(difluoromethoxy)phenyl]-3-methyl-3,5-dihydro-4H-imidazol-4-one]
19 | 0.11 to 1 | CN1C(=O)C(c2ccc(OC(F)F)cc2)(c2cccc(CNCc3ccco3)c2)N=C1N (stereo not shown) [Example 68, 2-amino-5-[4-(difluoromethoxy)phenyl]-5-(3-{[(2-furylmethyl)-amino]methyl}phenyl)-3-methyl-3,5-dihydro-4H-imidazol-4-one]
20 | 0.11 to 1 | C=CC[C@@H](C)c1cccc(C2(c3ccc(OC(F)F)cc3)N=C(N)N(C)C2=O)c1 (stereo partly drawn) [Example 69, 2-amino-4-(4-(difluoromethoxy)phenyl)-1-methyl-4-(3-((R)-pent-4-en-2-yl)phenyl)-1H-imidazol-5(4H)-one]
21 | 0.11 to 1 | COC/C=C(\C)c1cccc(C2(c3ccc(OC(F)F)cc3)N=C(N)N(C)C2=O)c1 (stereo not shown) [Example 71, (E)-2-amino-4-(4-(difluoromethoxy)phenyl)-4-(3-(4-methoxybut-2-en-2-yl)phenyl)-1-methyl-1H-imidazol-5(4H)-one]
22 | < 0.1 | CCOCCC#Cc1cccc(C2(c3ccc(OC(F)F)cc3)N=C(N)N(C)C2=O)c1 (stereo not shown) [Example 73, 2-Amino-5-[4-(difluoromethoxy)phenyl]-5-[3-(4-ethoxybut-1-yn-1-yl)phenyl]-3-methyl-3,5-dihydro-4H-imidazol-4-one]
23 | < 0.1 | C/C=C/c1cc([C@@]2(c3ccc(OC(F)F)cc3)N=C(N)N(C)C2=O)ccc1F [Example 77B, (5R)-2-amino-5-[4-(difluoromethoxy)phenyl]-5-{4-fluoro-3-[(1E)-prop-1-en-1-yl]phenyl}-3-methyl-3,5-dihydro-4H-imidazol-4-one]
24 | < 0.1 | C=CC#Cc1cc(C2(c3ccc(OC(F)F)cc3)N=C(N)N(C)C2=O)ccc1F (stereo not shown) [Example 87, 2-amino-4-(3-(but-3-en-1-ynyl)-4-fluorophenyl)-4-(4-(difluoromethoxy)phenyl)-1-methyl-1H-imidazol-5(4H)-one]
25 | < 0.1 | CN1C(=O)C(c2ccc(OC(F)F)cc2)(c2ccc(F)c(OCCC(F)F)c2)N=C1N (stereo not shown) [Example 92, 2-Amino-5-[4-(difluoromethoxy)phenyl]-5-[3-(3,3-difluoropropoxy)-4-fluorophenyl]-3-methyl-3,5-dihydro-4H-imidazol-4-one]
